From patent publication US10363234B2, “Antihypertensive agent” (WAKUNAGA PHARMACEUTICAL CO., LTD., priority 2015, dated 2019)

Legend:
Type in all cases: in vivo, rat
[1] = test system: Spontaneous Hypertensive Rats (SHR); test: Single oral administration of S1PC and SAC to spontaneous hypertensive rats, systolic blood pressure (Test Example 2); details: SHR/Izm rats, single oral dose 1 mg/kg, S1PC effect 3 hours after the administration, Bonferroni test
Method: Effect of Administering S-1-Propenylcysteine (S1PC) and S-Allylcysteine (SAC) to Spontaneous Hypertensive Rats (SHR)
(§1) One group of eight 8-week-old male SHR/Izm rats purchased from Japan SLC, Inc. (Hamamatsu-shi) was preliminarily bred for three weeks. During preliminary breeding, handling was performed on the rats, and the rats were bred in a constant environment (temperature; 23±1° C., humidity; 50±10%, light-dark cycle; 12 hours (light period; 7 to 19 o'clock)) and freely fed with an artificial diet (CE-2; CLEA Japan, Inc.) and sterilized tap water.
(§2) The administration was performed by forced oral administration using a disposable feeding needle and the fluid volume to be administered was 10 mL per 1 kg of SHR weight. […]
(§3) Before the start of administration (0 hour) and after the administration (3, 6, and 24 hours), the systolic blood pressure at the base of each tail was measured without anesthesia using a non-preheating, non-invasive blood pressure monitor (MK-2000ST, Muromachi Kikai Co., Ltd.). Note that the measurement was performed five times per individual, the upper and lower values were eliminated, and an average of the remaining measured values was defined as a systolic blood pressure value of the individual. […]

[2] = test system: Spontaneous Hypertensive Rats (SHR); test: Single oral administration of S1PC to spontaneous hypertensive rats, systolic blood pressure (Test Example 1); details: SHR/Izm rats, single oral dose 6.5 mg/kg, 1.5 to 6 hours after the administration, t-test
Method: Effect of Administering S-1-Propenylcysteine (S1PC) to Spontaneous Hypertensive Rats (SHR)
as §1, with “two” for “three”
(§4) The administration was performed by forced oral administration using a disposable feeding needle and the fluid volume to be administered was 10 mL per 1 kg of SHR weight. As a sample to be administered, about 15 mg of S-1-propenylcysteine produced in Production Example 2 (a cis- and trans-mixture) was precisely weighed and dissolved in 15 mL of purified water. […]
as §3, with “(1.5, 3,” for “(3,”

[3] = test system: Normotensive Rats (WKY); test: Single oral administration of S1PC to normotensive rats, systolic blood pressure (Test Example 4); details: WKY/Izm rats, single oral dose 6.5 mg/kg, measured 3, 6 and 24 hours
Method: Effect of Administering S-1-Propenylcysteine (S1PC) to Normotensive Rats (WKY)
as §1, with “four” for “eight”, “WKY/Izm” for “SHR/Izm”, “two” for “three”
as §4, with “WKY” for “SHR”
as §3

[4] = test system: Spontaneous Hypertensive Rats (SHR); test: Repeated oral administration of S1PC to spontaneous hypertensive rats for 10 weeks, systolic blood pressure (Test Example 3); details: SHR/Izm rats, 6.5 mg/kg oral once a day for 10 weeks, two-way ANOVA
Method: Effect of Repeated Oral Administration of S-1-Propenylcysteine (S1PC) on Spontaneous Hypertensive Rats (SHR)
as §1, with “ten” for “eight”, “two” for “three”
as §2
Before the repeated oral administration (0 hour), and every other week after the administration up to 10 weeks, the systolic blood pressure at the base of each tail was measured without anesthesia using a non-preheating, non-invasive blood pressure monitor (MK-2000ST, Muromachi Kikai Co., Ltd.). Note that the measurement was performed five times per individual, the upper and lower values were eliminated, and an average of the remaining measured values was defined as a systolic blood pressure value of the individual. […]

In the case of `C=CCSC[C@H](N)C(=O)O` [SAC, S-allylcysteine, reference compound], the “antihypertensive effect (systolic blood pressure) as compared with the control group” value [1] is reported as “no significant antihypertensive effect”.

With `CC=CSCC(N)C(=O)O` (centres unmarked) [S-1-propenylcysteine] the “antihypertensive effect (systolic blood pressure) as compared with the control group” value [1] was “significant antihypertensive effect”, the “antihypertensive effect (systolic blood pressure) as compared with the control group” value [2] was “significant antihypertensive effect” and the “antihypertensive effect (systolic blood pressure) on normotensive rats” value [3] was “no significant antihypertensive effect”. For the same compound, the “antihypertensive effect (systolic blood pressure) as compared with the control group” value [4] was “significant antihypertensive effect”.
